According to US4115065A, “Saturation analysis of folate compound with selenium-75 labeled folate” (The Radiochemical Centre Limited, priority 1973, dated 1978):
Several values for one entry are separate records, joined by “and”; a condition that tells them apart may be missing. Equal entries are not always repeated.

What was measured:
β-lactoglobulin [1] = target: T1, β-lactoglobulin (Bos taurus, UniProt P02702); assay: Example 5: saturation assay, Se75 pteroyl-L-methylselenocysteine label, folic acid standards; type: binding; conditions: 0.5 ng label, β-lactoglobulin 100 μg
Procedure: (§1) Standard solutions of N^5 -methyltetrahydrofoate containing 0, 0.25, 0.5, 1, 2 and 4 ng in phosphate-albumin buffer (200 μl) were pipetted in assay tubes. Buffer was also added to `total` and `blank` tubes (400 and 300 μl respectively). To each tube was added pteroyl-L-methylselenocysteine-Se75 (0.5 ng, sp. act. ca 0.24 Ci/m.mole) in 100 μl of buffer. Immediately afterwards β-lactoglobulin (100 μg) in 100 μl of buffer was added to all tubes except the blanks. After 60 minutes incubation at room temperature, a suspension of albumin-coated charcoal in buffer (200 μl) was added at 4° C. to all tubes except the totals. The tubes were centrifuged (2000g for 10 minutes) and the supernate was counted for 300 seconds in an NE8312 beta-gamma counter.
(§2) Results are expressed in terms of [formula]
The protocol of example 4 was used except that folic acid was used as the standard instead of N^5 -methyltetrhydrofolate
Target sequence in this assay (P02702 20-241): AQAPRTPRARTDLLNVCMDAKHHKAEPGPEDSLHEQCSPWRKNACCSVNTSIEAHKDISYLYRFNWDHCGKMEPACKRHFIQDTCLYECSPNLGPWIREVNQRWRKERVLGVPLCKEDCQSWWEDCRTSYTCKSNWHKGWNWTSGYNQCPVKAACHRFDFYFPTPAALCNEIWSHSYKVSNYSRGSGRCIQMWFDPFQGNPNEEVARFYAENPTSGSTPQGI

β-lactoglobulin [2] = target: T1, β-lactoglobulin; assay: Example 4: saturation assay for folates, Se75 pteroyl-L-methylselenocysteine label, N5-methyltetrahydrofolate standards; type: binding; conditions: 0.5 ng label, β-lactoglobulin 100 μg
Procedure: as §1, §2
Target sequence in this assay (P02702 20-234 limits assumed): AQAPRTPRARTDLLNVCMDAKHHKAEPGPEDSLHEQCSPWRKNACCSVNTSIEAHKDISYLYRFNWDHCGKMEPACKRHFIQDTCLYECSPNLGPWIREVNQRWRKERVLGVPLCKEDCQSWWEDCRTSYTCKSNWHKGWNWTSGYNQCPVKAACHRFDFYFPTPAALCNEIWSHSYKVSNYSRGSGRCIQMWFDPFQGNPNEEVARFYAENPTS

[3] = tested on: porcine serum as binding protein; assay: Example 9: saturation assay, Se75 pteroyl-L-methylselenocysteine label, folic acid standards, porcine serum binder; conditions: 0.5 ng label, porcine serum 30 μl
Procedure: as §1, §2
(§3) The protocol of example 4 was used except that a solution (100 μl) containing 30 μl of porcine serum and 70 μl of buffer was used instead of β-lactoglobulin as binding protein.
The protocol of example 8 was used except that folic acid was substituted for N^5 -methyltetrahydrofolate as standard

[4] = tested on: porcine serum as binding protein; assay: Example 8: saturation assay, Se75 pteroyl-L-methylselenocysteine label, N5-methyltetrahydrofolate standards, porcine serum binder; conditions: 0.5 ng label, porcine serum 30 μl
Procedure: as §1, §2, §3

[5] = tested on: rabbit anti folic acid antiserum; assay: Example 12: radioimmunoassay for folic acid, Se75 pteroyl-L-methylselenocysteine label; type: binding; conditions: 0.5 ng label, 2 μl rabbit anti folic acid antiserum
Procedure: (§4) Standard solutions of folic acid containing 0, 0.25, 0.5, 1, 2 and 4 ng in phosphate-albumin buffer (200 μl) were pipetted into assay tubes. Buffer was also added to `total` and `blank` tubes (400 and 300 μl respectively). To each tube was added Se75-pteroyl-L-methylselenocysteine (0.5 ng, sp. act. ca 0.24 Ci/m.mole) in 100 μl of buffer. Immediately afterwards was added, to all tubes except the blanks, 100 μl of buffer containing 2 μl of a 1/15000 titre rabbit anti folic acid antiserum, raised against a conjugate of folic acid with serum albumin.
(§5) After 60 minutes incubation at room temperature, a suspension of albumin-coated charcoal in buffer (200 μl) was added at 4° C. to all tubes except the totals. The tubes were centrifuged (2000g for 10 minutes) and the supernate was counted for 300 seconds.

β-lactoglobulin [6] = target: T1, β-lactoglobulin; assay: Example 6: saturation assay, Se75 pteroyl-L-selenomethionine label, N5-methyltetrahydrofolate standards; type: binding; conditions: 0.5 ng label
Procedure: as §1, §2
(§6) The protocol of example 4 was used except that Se75-pteroyl-L-selenomethionine (0.5ng, sp. act. ca 2.25 Ci/m.mole) was substituted as label for Se75-pteroyl-L-methylselenocysteine.
Target sequence in this assay (P02702 20-234 limits assumed): as above

[7] = tested on: porcine serum as binding protein; assay: Example 7: saturation assay, Se75 pteroyl-L-selenomethionine label, N5-methyltetrahydrofolate standards, porcine serum binder; conditions: 0.5 ng label, porcine serum 30 μl
Procedure: as §1, §2, §6
The protocol of example 6 was used except that a solution of porcine serum (30 μl) in buffer (70 μl) was substituted for β-lactoglobulin as binding protein.

[8] = tested on: porcine serum as binding protein; assay: Example 11: saturation assay, Se75 pteroyl-L-selenomethionine label, folic acid standards, porcine serum binder; conditions: 0.5 ng label, porcine serum 30 μl
Procedure: as §1, §2, §6
The protocol of example 6 was used except that folic acid was substituted for N^5 -methyltetrahydrofolate as standard.
The protocol of example 10 was used except that a solution containing 30 μl of porcine serum and 70 μl of buffer was substituted for β-lactoglobulin as binding protein.

[9] = tested on: rabbit anti folic acid antiserum; assay: Example 13: radioimmunoassay for folic acid, Se75 pteroyl-L-selenomethionine label; type: binding; conditions: 0.5 ng label
Procedure: as §4, §5
The protocol of example 12 was used except that Se75-pteroyl-L-selenomethionine (0.5ng, sp. act. ca 2.25 Ci/m.mole) was substituted for Se-75-pteroyl-L-methylselenocysteine as label

[10] = 0.25 ng N5 methyltetrahydrofolate
[11] = 0.5 ng N5 methyltetrahydrofolate

SMILES: C[75Se]C[C@H](NC(=O)c1ccc(NCc2cnc3nc(N)[nH]c(=O)c3n2)cc1)C(=O)O [pteroyl-L-methylselenocysteine-Se75, N-Pteroyl-Se-methyl-L-selenocysteine-Se75]
- percentage of labelled folate bound (β-lactoglobulin [1]; 0 ng folic acid): 95.5%
- percentage of labelled folate bound (β-lactoglobulin [1]; 0.25 ng folic acid): 86.1% and 85.6%
- percentage of labelled folate bound (β-lactoglobulin [1]; 0.5 ng folic acid): 67.7% and 82.5%
- percentage of labelled folate bound (β-lactoglobulin [1]; 1 ng folic acid): 45.5% and 41.4%
- percentage of labelled folate bound (β-lactoglobulin [1]; 2 ng folic acid): 28.1% and 32.6%
- percentage of labelled folate bound (β-lactoglobulin [1]; 4 ng folic acid): 10.4%
- percentage of labelled folate bound (β-lactoglobulin [2]; 0 ng N5 methyltetrahydrofolate, 60 minutes room temperature): 94%
- percentage of labelled folate bound (β-lactoglobulin [2]; [10]): 81.8% and 78.0%
- percentage of labelled folate bound (β-lactoglobulin [2]; [11]): 81.4%
- percentage of labelled folate bound (β-lactoglobulin [2]; 1 ng N5 methyltetrahydrofolate): 78.3% and 78.6%
- percentage of labelled folate bound (β-lactoglobulin [2]; 2 ng N5 methyltetrahydrofolate): 51.3% and 58.0%
- percentage of labelled folate bound (β-lactoglobulin [2]; 4 ng N5 methyltetrahydrofolate): 44.4% and 34.1%
- Percent of labelled folic acid bound to porcine serum ([3]; 0 ng folic acid): 92.7%
- Percent of labelled folic acid bound to porcine serum ([3]; 0.25 ng folic acid): 67.1% and 68.7%
- Percent of labelled folic acid bound to porcine serum ([3]; 0.5 ng folic acid): 60.9% and 43%
- Percent of labelled folic acid bound to porcine serum ([3]; 1 ng folic acid): 26.2% and 31.3%
- Percent of labelled folic acid bound to porcine serum ([3]; 2 ng folic acid): 28.0% and 28.3%
- Percent of labelled folic acid bound to porcine serum ([3]; 4 ng folic acid): 9% and 2.6%
- Percent of labelled folate bound ([4]; 0 ng N5 methyltetrahydrofolate): 89.3%
- Percent of labelled folate bound [4, 10]: 61.4% and 52.0%
- Percent of labelled folate bound [4, 11]: 43.3% and 48.1%
- Percent of labelled folate bound ([4]; 1 ng N5 methyltetrahydrofolate): 41.2% and 38.9%
- Percent of labelled folate bound ([4]; 2 ng N5 methyltetrahydrofolate): 40.9% and 39.3%
- Percent of labelled folate bound ([4]; 4 ng N5 methyltetrahydrofolate): 34.5% and 31.0%
- Percent of labelled folate bound to antiserum ([5]; 0 ng folic acid): 97.6%
- Percent of labelled folate bound to antiserum ([5]; 0.25 ng folic acid, listed as Se75-pteroyl-L-methylselenocysteine): 72.4% and 90.9%
- Percent of labelled folate bound to antiserum ([5]; 0.5 ng folic acid, listed as Se75-pteroyl-L-methylselenocysteine): 52.5% and 70.3%
- Percent of labelled folate bound to antiserum ([5]; 1 ng folic acid, listed as Se75-pteroyl-L-methylselenocysteine): 50.1% and 35.3%
- Percent of labelled folate bound to antiserum ([5]; 2 ng folic acid, listed as Se75-pteroyl-L-methylselenocysteine): 20.1% and 29.6%
- Percent of labelled folate bound to antiserum ([5]; 4 ng folic acid, listed as Se75-pteroyl-L-methylselenocysteine): 20.1% and 12.8%

SMILES: C[75Se]CC[C@H](NC(=O)c1ccc(NCc2cnc3nc(N)[nH]c(=O)c3n2)cc1)C(=O)O [Se75-pteroyl-L-selenomethionine, N-Pteroyl-L-selenomethionine-Se75]
- Percent of labelled folate bound (β-lactoglobulin [6]; 0 ng N5 methyltetrahydrofolate): 49.9%
- Percent of labelled folate bound (β-lactoglobulin [6]; [10]): 39.3% and 36.1%
- Percent of labelled folate bound (β-lactoglobulin [6]; [11]): 35.9% and 37.3%
- Percent of labelled folate bound (β-lactoglobulin [6]; 1 ng N5 methyltetrahydrofolate): 32.6% and 33.0%
- Percent of labelled folate bound (β-lactoglobulin [6]; 2 ng N5 methyltetrahydrofolate): 25.9%
- Percent of labelled folate bound (β-lactoglobulin [6]; 4 ng N5 methyltetrahydrofolate): 25.4% and 24.1%
- Percent of labelled folate bound ([7]; 0 mg N5 methyltetrahydrofolate): 36.4%
- Percent of labelled folate bound ([7]; 4 ng N5 methyltetrahydrofolate): 15.5% and 15.6%
- Percent of labelled folate bound ([7]; 0.25 mg N5 methyltetrahydrofolate): 21.3%
- Percent of labelled folate bound ([7]; 0.5 mg N5 methyltetrahydrofolate): 17.2% and 17.1%
- Percent of labelled folate bound ([7]; 1 mg N5 methyltetrahydrofolate): 20.7% and 18.5%
- Percent of labelled folate bound ([7]; 2 mg N5 methyltetrahydrofolate): 19.3% and 17.2%
- Percent of labelled folate bound ([8]; 0 ng folic acid): 35.7%
- Percent of labelled folate bound ([8]; 0.25 ng folic acid): 20.3% and 21.1%
- Percent of labelled folate bound ([8]; 0.5 ng folic acid): 18.4% and 20.9%
- Percent of labelled folate bound ([8]; 1 ng folic acid): 16.8% and 17.3%
- Percent of labelled folate bound ([8]; 2 ng folic acid): 13.0% and 13.9%
- Percent of labelled folate bound ([8]; 4 ng folic acid): 12.6% and 15.2%
- Percent of labelled folate bound ([9]; 0 ng folic acid): 42.2%
- Percent of labelled folate bound ([9]; 0.25 ng folic acid): 25.7% and 27.6%
- Percent of labelled folate bound ([9]; 0.5 ng folic acid): 22.1% and 19%
- Percent of labelled folate bound ([9]; 1 ng folic acid): 20.8% and 21.9%
- Percent of labelled folate bound ([9]; 2 ng folic acid): 16.7% and 15.5%
- Percent of labelled folate bound ([9]; 4 ng folic acid): 16% and 13.7%
